Experimental data as given in patent US20050192256A1, “Methods of using vitamin D compounds in the treatment of patients undergoing hemodialysis” (priority 2003, published 2005).

What was measured:
[1] = Vitamin D therapy and K/DOQI guidelines on hospitalization outcomes in hemodialysis patients (cohort, negative binomial regression); assay type: in vivo, human; conditions: for annual hospitalizations (HOSP) and hospital days (DAYS), NoD group compared with treated group: NoD (N=3007) vs P (N=1318) or C (N=1432), therapy at least 180 days
Source text: An examination was made of the relationship between Vitamin D therapy and K/DOQI guidelines on hospitalization outcomes, as a surrogate for morbidity, in hemodialysis (HD) patients. The cohort consisted of U.S. patients who were new to HD during the period from January 1999 to December 2001 and who received paricalcitol (P), calcitriol (C) or no vitamin D (NoD) therapy for at least 180 days. To allow for patients to be stabilized after initiation to Vitamin D or NoD therapy, baseline laboratory values were defined over the initial 90-180 days of the observation period; mean values over this baseline period were assessed relative to K/DOQI guidelines. Patients with baseline laboratory measurements within K/DOQI guidelines served as reference groups. An interaction term was created to examine the relationship between Vitamin D therapy and the K/DOQI baseline assessment. Outcomes were defined by annual hospitalizations (HOSP) and hospital days (DAYS). Analysis was performed using negative binomial regression modeling.

[2] = Association of Vitamin D therapy, serum PTH and CaxP product quintiles with hospitalization outcomes in hemodialysis patients (cohort, negative binomial regression); assay type: in vivo, human; conditions: for association between quintiles of PTH, CaxP and hospital outcomes (morbidity): interaction of laboratory quintiles and Vitamin D therapy
Source text: Elevated PTH and CaxP levels have been considered risk factors for increased mortality and morbidity (M&M) in HD patients. […] To date, the relationship between M&M, PTH, CaxP product and the impact of Vitamin D therapy, however, has not been addressed. Thus, by quintiles, an analysis was made of the baseline distribution of serum iPTH, and CaxP product levels in HD patients who received paricalcitol (P), calcitriol (C) or no Vitamin D (NoD) therapy in regard to their relationship with hospitalization outcomes as defined by hospitalizations per year (HOSP) and hospital days per year (DAYS). The cohort consisted of 11,340 adult patients new to HD between January 1999 and November 2001; there were 2,316 patients treated with P; 2,299 patients treated with C and 6,725 patients NoD.

[3] = recent data; cited from earlier work

Row | Structure (SMILES) | annual hospitalizations (HOSP) and hospital days (DAYS), NoD group compared with treated group ([1]; p<0.05) | increase in DAYS for patients outside of K/DOQI guidelines for Phos ([1]; interaction assessment, reference: patients within K/DOQI guidelines, p<0.05) | DAYS in the 2nd quintile of CaxP compared to the reference group (3rd quintile) ([2]; human, in vivo) | association between quintiles of PTH, CaxP and hospital outcomes (morbidity) [2] | difference in outcomes for patients within K/DOQI guidelines compared to those outside of guidelines ([1]; HOSP and DAYS) | hospitalization outcomes, ranking among groups ([1]; P vs C vs NoD) | survival in HD patients [3] | fewer DAYS (hospital days per year) compared to C group ([2]; 2,316 patients P vs 2,299 C, p=0.0036) | fewer DAYS (hospital days per year) compared to NoD group ([2]; 2,316 patients P vs 6,725 NoD, p<0.0001)
1 | C=C1/C(=C\C=C2/CCC[C@]3(C)[C@@H]([C@H](C)CCCC(C)(C)O)CC[C@@H]23)C[C@@H](O)C[C@@H]1O [calcitriol, 1α,25-dihydroxy-vitamin D3] | significantly more HOSP and DAYS | 40% | significantly fewer DAYS | no significant associations |  |  |  |  | 
2 | C[C@H](/C=C/[C@H](C)C(C)(C)O)[C@H]1CC[C@H]2/C(=C/C=C3C[C@@H](O)C[C@H](O)C3)CCC[C@]12C [paricalcitol, 19-nor-1α,3β,25-trihydroxy-9,10-secoergosta-5(Z); 7(E),22(E)-triene] | significantly more HOSP and DAYS |  |  | not associated with morbidity | no significant difference | fewest hospitalization outcomes | associated with survival benefit | 72% | 90%
